The values below come from US20070189997A1, “Skin-whitening agent containing polyphenol compound” (Nichirei Foods Inc., priority 2004, published 2007).

SMILES strings stand for the structures. Values joined by “and” are separate entries in the source; they are usually repeats but may differ in a detail not shown here. Identical values can stand only once.

The subject of data set [1] is mushroom tyrosinase. In words: Inhibition of tyrosinase activity (L-Dopa, absorbance at 475 nm), procedure of Example 3. It counts as biochemical. The conditions noted are these: for effects of inhibiting tyrosinase activity (FIG. 1, 3, 4): 25° C., various concentrations in DMSO; for effects for inhibiting tyrosinase activity relative to kojic acid: compared with kojic acid, Table 2; for IC50: procedure of Example 3, read-out: Concentration at which 50% of tyrosinase activity is inhibited. On the procedure: 1/15M phosphate buffer (70 μl, pH 6.8), 2 μl each of sample solutions of the C18-adsorbed fraction obtained in Example 1 dissolved in dimethyl sulfoxide (DMSO) at various concentrations, and 70 μl (10 U) of mushroom tyrosinase (Calzyme Laboratories) dissolved in the buffer were mixed, and the mixture was incubated at 25° C. for 10 minutes. Thereafter, 70 μl of 10 mM L-Dopa was added to initiate the reaction, the absorbance at 475 nm was assayed every 20 seconds for 2 minutes, and the inhibition (%) of tyrosinase activity was calculated using the following equation. […] Further, PVPP resin was added to the supernatant to a concentration of 1%, and the resultant was also agitated for 1.5 hours, followed by centrifugation to obtain a supernatant. […] The sample was dissolved in 1/15M phosphate buffer (pH 6.8) instead of DMSO. The polyphenol content was assayed in the same manner as in Example 1.

Data set [2] has as its system tyrosinase. In words: Tyrosinase activity inhibition, C18-adsorbed fraction and ascorbic acid alone and combined (Example 12, absorbance at 450 nm). It counts as biochemical, mushroom. On the procedure:
A sample (or a combination of two types of samples) was dissolved in DMSO and diluted with DMSO at adequate concentrations.
A tyrosinase solution (70 μl, 10 U/70 μl, Calzyme Laboratories, Inc.), 70 μl of 1/15M phosphate buffer (Wako Pure Chemical Industries, Ltd.), and 4 μl each of the samples dissolved in DMSO at various concentrations were introduced into separate wells of a 96-well plate. DMSO was added to a control sample instead of a sample solution.
After the pre-incubation was carried out at 25° C. for 10 minutes, 70 μl of 10 mM L-DOPA (Wako Pure Chemical Industries, Ltd.) was added, the mixture was mixed immediately thereafter, and the absorbance at 450 nm was assayed every 20 seconds for 2 minutes. Change (slope) in the absorbance per unit time thus assayed was designated as the initial rate, and the inhibition (%) was determined by the following equation. Inhibition (%)={1−(initial ratesample/initial ratecontrol)}×100
The terms “additive effect” and “synergistic effect” are described. When tyrosinase activity inhibition (%) by the C18-adsorbed fraction alone at a concentration of A μg/ml is X (%) and tyrosinase activity inhibition (%) by ascorbic acid alone at a concentration of B μg/ml is Y (%), the case where the value Z for the tyrosinase activity inhibition (%) assayed upon the reaction of the C18-adsorbed fraction at a concentration of A μg/ml with ascorbic acid at a concentration of B μg/ml is equal to the sum of X+Y is evaluated as “C18-adsorbed fraction additively reacts with ascorbic acid.” The case where the value Z is greater than the sum of X+Y is evaluated as “C18-adsorbed fraction synergistically reacts with ascorbic acid.” When the value Z is smaller than the sum of X+Y, the C18-adsorbed fraction and ascorbic acid attenuate their effects each other.

Data set [3] deals with mushroom tyrosinase. In words: Test of anthocyanidin compounds for inhibiting tyrosinase activity (Example 11, IC50). It counts as biochemical. The conditions noted are these: for IC50: 25° C., L-Dopa, 475 nm. How it is done:
The sample compounds were dissolved in DMSO and diluted with DMSO at adequate concentrations.
1/15M phosphate buffer (70 μl), 70 μl of a solution containing mushroom tyrosinase adjusted at 1 U/μl with a buffer, and 2 μl each of sample solutions dissolved in DMSO at various concentrations were introduced into separate wells of a 96-well plate, and these substances were thoroughly mixed, followed by incubation at 25° C. for 10 minutes.
A solution of 10 mM L-Dopa (70 μl) was added and mixed in immediately thereafter. […] The reaction was carried out at 25° C.
Change (slope) in the absorbance per unit time was designated as the initial rate, and the inhibition of tyrosinase activity (%) was determined by the following equation. Inhibition (%)={1−(initial ratesample/initial ratecontrol)}×100

Data set [4] concerns tyrosinase. The conditions noted are these: cited from earlier work.
For data set [5] the following is noted: in vivo; cited from earlier work.

With `O=C1O[C@H]([C@@H](O)CO)C(O)=C1O` [Ascorbic acid, ascorbic acid], the “Inhibition of tyrosinase activity (%)” value in data set [1] (Ascorbic acid 33.3 μM) is on record as 5.49%. In addition, the “Mean of tyrosinase activity inhibition (n = 3)” value in data set [2] (ascorbic acid alone 2.4 μg/ml) is −1.3%; in data set [2] (ascorbic acid alone 4.7 μg/ml) it was 1.0% and 1.0 ± 3.4%; in data set [2] (ascorbic acid alone 9.4 μg/ml), 9.0% and 9.0 ± 2.9%; in data set [2] (ascorbic acid alone 47.2 μg/ml) it was 95.0%. In addition, the “tyrosinase inhibitory activity” value in data set [2] (ascorbic acid at a concentration up to 9.4 μg/ml) is recorded as “inhibitory activity was not observed very much”; in data set [2] (ascorbic acid at a final concentration of 47.2 μg/ml), “almost completely inhibited”.

In the case of `C[C@@H]1O[C@@H](O[C@H]2C(=O)c3c(O)cc(O)cc3O[C@@H]2c2ccc(O)c(O)c2)[C@H](O)[C@H](O)[C@H]1O` [Astilbin, dehydroquercitrin], the IC50 in data set [3] was above 2000 µM.

Consider `C[C@@H]1O[C@@H](Oc2cc3c(O)cc(O)cc3[o+]c2-c2ccc(O)c(O)c2)[C@H](O)[C@H](O)[C@H]1O.[Cl-]` [C3R, cyanidin-3-rhamnoside], for which, in data set [1], the “effects of inhibiting tyrosinase activity (FIG. 1, 3, 4)” value is “found to have effects of inhibiting tyrosinase activity”; the “effects for inhibiting tyrosinase activity relative to kojic acid” value is “equivalent to those of kojic acid”; the IC50 turned out to be 33 µM. In data set [3], this compound displayed an IC50 of 33 µM.

As to `Oc1cc(O)c2cc(O)c(-c3ccc(O)c(O)c3)[o+]c2c1.[Cl-]` [Cyanidin chloride], the “effects of inhibiting tyrosinase activity (Non-Patent Document 1)” value in data set [4] is “neither delphinidin, cyanidin, and malvidin have effects of inhibiting tyrosinase activity”. In addition, in data set [3], the “effects of inhibiting tyrosinase activity” value is recorded as “found to have effects of inhibiting tyrosinase activity” and the IC50 amounted to 11 µM.

On to `OC[C@H]1O[C@@H](Oc2cc3c(O)cc(O)cc3[o+]c2-c2ccc(O)c(O)c2)[C@H](O)[C@@H](O)[C@@H]1O` [Cyanidin-3-glucoside, reference compound], for which the IC50 in data set [3] worked out at 84 µM.

For `Oc1cc(O)c2cc(O)c(-c3cc(O)c(O)c(O)c3)[o+]c2c1` [Delphinidin chloride], the “effects of inhibiting tyrosinase activity (Non-Patent Document 1)” value in data set [4] is “neither delphinidin, cyanidin, and malvidin have effects of inhibiting tyrosinase activity”. Also, in data set [3], the “effects of inhibiting tyrosinase activity” value is “found to have effects of inhibiting tyrosinase activity” and the IC50 came out at 16.4 µM.

As for `O=c1cc(CO)occ1O` [Kojic acid], the “potential cause of liver cancer in animal tests” value in data set [5] is given as “found to be a potential cause of liver cancer”.

Turning to `COc1cc(-c2[o+]c3cc(O)cc(O)c3cc2O)cc(OC)c1O` [Malvidin chloride], the “effects of inhibiting tyrosinase activity (Non-Patent Document 1)” value in data set [4] is “neither delphinidin, cyanidin, and malvidin have effects of inhibiting tyrosinase activity”. In data set [3], the “effects of inhibiting tyrosinase activity” value was “particularly potent” and the IC50 was 0.4 µM.

For `CC1O[C@@H](Oc2cc3c(O)cc(O)cc3[o+]c2-c2ccc(O)cc2)[C@@H](O)C(O)[C@H]1O` (some centres unmarked) [P3R, pelargonidin-3-rhamnoside], in data set [1], the “effects of inhibiting tyrosinase activity (FIG. 1, 3, 4)” value is given as “found to have effects of inhibiting tyrosinase activity”; the “effects for inhibiting tyrosinase activity relative to kojic acid” value is listed as “about 6 times”; the IC50 turned out to be 5.7 µM. Moreover, the IC50 in data set [3] worked out at 5.7 µM.

Take `Oc1ccc(-c2[o+]c3cc(O)cc(O)c3cc2O)cc1` [Pelargonidin chloride]: in data set [3], the “effects of inhibiting tyrosinase activity” value is reported as “found to have effects of inhibiting tyrosinase activity” and the IC50 worked out at 20 µM.
